Molecules are shown by their SMILES.

The subject of the experiment is 4 PI3K isoforms (Human recombinant GST-PI3K). Briefly: PI3K scintillation proximity assay, best IC50 obtained with the four isoforms (alpha, beta, delta, gamma). The format is biochemical. Conditions: best IC50 obtained with the four isoforms of PI3K; read-out: Best potency measured on the 4 PI3K isoforms.
With `COCCN1CCC(n2nc(C(=O)N3CCOCC3)c3c2-c2ccccc2S(=O)(=O)C3)C1` (stereo not shown) [Example 255, 1-[1-(2-Methoxyethyl)pyrrolidin-3-yl]-3-(morpholin-4-ylcarbonyl)-1,4-dihydrothiochromeno[4,3-c]pyrazole 5,5-dioxide], the IC50 came to 1480 nM.

Take `COCCCN1CCC(n2nc(C(=O)N3CCOCC3)c3c2-c2ccccc2S(=O)(=O)C3)C1` (stereo not shown) [Example 256, 1-[1-(3-Methoxypropyl)pyrrolidin-3-yl]-3-(morpholin-4-ylcarbonyl)-1,4-dihydrothiochromeno[4,3-c]pyrazole 5,5-dioxide]: the IC50 was determined as 923 nM. Turning to `CC(C)(C)OC(=O)N1CCCC(n2nc(C(=O)N3CCOCC3)c3c2-c2ccccc2S(=O)(=O)C3)CC1` (stereo not shown) [Example 257], the IC50 was 824 nM. In the case of `COCCCN1CCCC(n2nc(C(=O)N3CCOCC3)c3c2-c2ccccc2S(=O)(=O)C3)CC1` (stereo not shown) [Example 258, 1-[1-(3-Methoxypropyl)azepan-4-yl]-3-(morpholin-4-ylcarbonyl)-1,4-dihydrothiochromeno[4,3-c]pyrazole 5,5-dioxide], the IC50 turned out to be 438 nM. `O=C(c1nn(-c2cccc(CN3CCC(F)(F)CC3)c2)c2c1CS(=O)(=O)c1ccccc1-2)N1CCOCC1` [Example 260, 1-{3-[(4,4-Difluoropiperidin-1-yl)methyl]phenyl}-3-(morpholin-4-ylcarbonyl)-1,4-dihydrothiochromeno[4,3-c]pyrazole 5,5-dioxide]: the IC50 was 560 nM.

As to `O=C(c1nn(-c2cccc(CN3CC(F)(F)C3)c2)c2c1CS(=O)(=O)c1ccccc1-2)N1CCOCC1` [Example 261, 1-{3-[(3,3-Difluoroazetidin-1-yl)methyl]phenyl}-3-(morpholin-4-ylcarbonyl)-1,4-dihydrothiochromeno[4,3-c]pyrazole 5,5-dioxide], the IC50 came to 643 nM. Turning to `COC1CN(Cc2cccc(-n3nc(C(=O)N4CCOCC4)c4c3-c3ccccc3S(=O)(=O)C4)c2)C1` [Example 262, 1-{3-[(3-Methoxyazetidin-1-yl)methyl]phenyl}-3-(morpholin-4-ylcarbonyl)-1,4-dihydrothiochromeno[4,3-c]pyrazole 5,5-dioxide], the IC50 worked out at 277 nM. With `O=C(c1nn(C2CCCN(CCn3cccn3)C2)c2c1CS(=O)(=O)c1ccccc1-2)N1CCOCC1` (stereo not shown) [Example 263, 3-(Morpholin-4-ylcarbonyl)-1-{1-[2-(1H-pyrazol-1-yl)ethyl]piperidin-3-yl}-1,4-dihydrothiochromeno[4,3-c]pyrazole 5,5-dioxide], the IC50 is 169 nM. Turning to `O=C(c1nn(C2CCOCC2)c2c1CS(=O)(=O)c1c(Cl)cccc1-2)N1CCOCC1` [Example 264, 6-Chloro-3-(morpholin-4-ylcarbonyl)-1-(tetrahydro-2H-pyran-4-yl)-1,4-dihydrothiochromeno[4,3-c]pyrazole 5,5-dioxide], the IC50 stood at 673 nM. As to `O=C(c1nn(C2CCCN(CC3CCOC3)C2)c2c1CS(=O)(=O)c1ccccc1-2)N1CCOCC1` (stereo not shown) [Example 265, 3-(Morpholin-4-ylcarbonyl)-1-[1-(tetrahydrofuran-3-ylmethyl)piperidin-3-yl]-1,4-dihydrothiochromeno[4,3-c]pyrazole 5,5-dioxide], the IC50 amounted to 98 nM. Consider `COC1CCN(Cc2cccc(-n3nc(C(=O)N4CCOCC4)c4c3-c3ccccc3S(=O)(=O)C4)c2)C1` (stereo not shown) [Example 266, 1-{3-[(3-Methoxypyrrolidin-1-yl)methyl]phenyl}-3-(morpholin-4-ylcarbonyl)-1,4-dihydrothiochromeno[4,3-c]pyrazole 5,5-dioxide], for which the IC50 came out at 350 nM. On to `COC1CCN(Cc2ccc(-n3nc(C(=O)N4CCOCC4)c4c3-c3ccccc3S(=O)(=O)C4)cc2)C1` (stereo not shown) [Example 267, 1-{4-[(3-Methoxypyrrolidin-1-yl)methyl]phenyl}-3-(morpholin-4-ylcarbonyl)-1,4-dihydrothiochromeno[4,3-c]pyrazole 5,5-dioxide], for which the IC50 stood at 59 nM. Regarding `O=C(c1nn(-c2ccc(CN3CCC(F)(F)CC3)cc2)c2c1CS(=O)(=O)c1ccccc1-2)N1CCOCC1` [Example 268, 1-{4-[(4,4-Difluoropiperidin-1-yl)methyl]phenyl}-3-(morpholin-4-ylcarbonyl)-1,4-dihydrothiochromeno[4,3-c]pyrazole 5,5-dioxide], the IC50 was 230 nM. Regarding `O=C(c1nn(C2CCN(CCC3CCOCC3)C2)c2c1CS(=O)(=O)c1ccccc1-2)N1CCOCC1` (stereo not shown) [Example 270, 3-(Morpholin-4-ylcarbonyl)-1-{1-[2-(tetrahydro-2H-pyran-4-yl)ethyl]pyrrolidin-3-yl}-1,4-dihydrothiochromeno[4,3-c]pyrazole 5,5-dioxide], the IC50 is 280 nM. Take `O=C(c1nn(-c2ccc(CN3CC(F)(F)C3)cc2)c2c1CS(=O)(=O)c1ccccc1-2)N1CCOCC1` [Example 271, 1-{4-[(3,3-Difluoroazetidin-1-yl)methyl]phenyl}-3-(morpholin-4-ylcarbonyl)-1,4-dihydrothiochromeno[4,3-c]pyrazole 5,5-dioxide]: the IC50 stood at 395 nM. For the molecule `COC1CN(Cc2ccc(-n3nc(C(=O)N4CCOCC4)c4c3-c3ccccc3S(=O)(=O)C4)cc2)C1` [Example 272, 1-{4-[(3-Methoxyazetidin-1-yl)methyl]phenyl}-3-(morpholin-4-ylcarbonyl)-1,4-dihydrothiochromeno[4,3-c]pyrazole 5,5-dioxide], the IC50 was 165 nM. On to `O=C(c1nn(C2CCCN(CCN3CC(F)(F)C3)C2)c2c1CS(=O)(=O)c1ccccc1-2)N1CCOCC1` (stereo not shown) [Example 273, 1-{1-[2-(3,3-Difluoroazetidin-1-yl)ethyl]piperidin-3-yl}-3-(morpholin-4-ylcarbonyl)-1,4-dihydrothiochromeno[4,3-c]pyrazole 5,5-dioxide], for which the IC50 was 36 nM. As for `O=C(c1nn(C2CCN(CCCl)C2)c2c1CS(=O)(=O)c1ccccc1-2)N1CCOCC1` (stereo not shown) [Example 274], the figure is 305 nM; as for `O=C(c1nn(C2CCN(CCN3CCOCC3)C2)c2c1CS(=O)(=O)c1ccccc1-2)N1CCOCC1` (stereo not shown) [Example 275, 3-(Morpholin-4-ylcarbonyl)-1-[1-(2-morpholin-4-ylethyl)pyrrolidin-3-yl]-1,4-dihydrothiochromeno[4,3-c]pyrazole 5,5-dioxide], 192 nM; as for `O=C(NC1CCCCC1)N1CCC(n2nc(C(=O)N3CCOCC3)c3c2-c2ccccc2S(=O)(=O)C3)C1` (stereo not shown) [Example 276], 875 nM. For `O=C(c1nn(C2CCN(CCN3CCC(F)CC3)C2)c2c1CS(=O)(=O)c1ccccc1-2)N1CCOCC1` (stereo not shown) [Example 277, 1-{1-[2-(4-Fluoropiperidin-1-yl)ethyl]pyrrolidin-3-yl}-3-(morpholin-4-ylcarbonyl)-1,4-dihydrothiochromeno[4,3-c]pyrazole 5,5-dioxide], the IC50 amounted to 149 nM. To `COCc1ccc(-n2nc(C(=O)N3CCOCC3)c3c2-c2ccccc2S(=O)(=O)C3)cc1` [Example 278, 1-[4-(Methoxymethyl)phenyl]-3-(morpholin-4-ylcarbonyl)-1,4-dihydrothiochromeno[4,3-c]pyrazole 5,5-dioxide] belongs 667 nM. For `O=C(CC1CCCCC1)N1CCC(n2nc(C(=O)N3CCOCC3)c3c2-c2ccccc2S(=O)(=O)C3)C1` (stereo not shown) [Example 279, 1-[1-(Cyclohexylacetyl)pyrrolidin-3-yl]-3-(morpholin-4-ylcarbonyl)-1,4-dihydrothiochromeno[4,3-c]pyrazole 5,5-dioxide], the IC50 came to 711 nM. To `O=C(c1nn(C2CCCN(CCC3CCOCC3)C2)c2c1CS(=O)(=O)c1c(F)cccc1-2)N1CCOCC1` (stereo not shown) [Example 280, 6-Fluoro-3-(morpholin-4-ylcarbonyl)-1-{1-[2-(tetrahydro-2H-pyran-4-yl)ethyl]piperidin-3-yl)-1,4-dihydrothiochromeno[4,3-c]pyrazole 5,5-dioxide] belongs 22 nM.

`O=C(c1nn(C2CCCN(CCN3CCC(F)CC3)C2)c2c1CS(=O)(=O)c1ccccc1-2)N1CCOCC1` (stereo not shown) [Example 281, 1-{1-[2-(4-Fluoropiperidin-1-yl)ethyl]piperidin-3-yl}-3-(morpholin-4-ylcarbonyl)-1,4-dihydrothiochromeno[4,3-c]pyrazole 5,5-dioxide]: the IC50 stood at 34 nM.

As to `O=C(c1nn(C2CCCN(CCN3CCCC(F)(F)C3)C2)c2c1CS(=O)(=O)c1ccccc1-2)N1CCOCC1` (stereo not shown) [Example 284, 1-{1-[2-(3,3-Difluoropiperidin-1-yl)ethyl]piperidin-3-yl}-3-(morpholin-4-ylcarbonyl)-1,4-dihydrothiochromeno[4,3-c]pyrazole 5,5-dioxide], the IC50 came out at 83 nM.

As for `O=C(c1nn(C2CCN(CCC3CCOCC3)CC2)c2c1CS(=O)(=O)c1ccccc1-2)N1CCOCC1` [Example 285, 3-(morpholin-4-ylcarbonyl)-1-{1-[2-(tetrahydro-2H-pyran-4-yl)ethyl]piperidin-4-yl}-1,4-dihydrothiochromeno[4,3-c]pyrazole 5,5-dioxide], the IC50 was found to be 692 nM. As for `O=C(c1nn(C2CCN(CCn3cccn3)C2)c2c1CS(=O)(=O)c1ccccc1-2)N1CCOCC1` (stereo not shown) [Example 286, 3-(Morpholin-4-ylcarbonyl)-1-{1-[2-(1H-pyrazol-1-yl)ethyl]pyrrolidin-3-yl}-1,4-dihydrothiochromeno[4,3-c]pyrazole 5,5-dioxide], the IC50 amounted to 257 nM. As to `O=C(CC1CCOCC1)N1CCC(n2nc(C(=O)N3CCOCC3)c3c2-c2ccccc2S(=O)(=O)C3)C1` (stereo not shown) [Example 287, 3-(Morpholin-4-ylcarbonyl)-1-[1-(tetrahydro-2H-pyran-4-ylacetyl)pyrrolidin-3-yl]-1,4-dihydrothiochromeno[4,3-c]pyrazole 5,5-dioxide], the IC50 stood at 733 nM. Consider `O=C(c1nn(C2CCN(CCn3ccnc3)C2)c2c1CS(=O)(=O)c1ccccc1-2)N1CCOCC1` (stereo not shown) [Example 288, 1-{1-[2-(1H-Imidazol-1-yl)ethyl]pyrrolidin-3-yl}-3-(morpholin-4-ylcarbonyl)-1,4-dihydrothiochromeno[4,3-c]pyrazole 5,5-dioxide], for which the IC50 is 166 nM. `CC(=O)Nc1nc2c(s1)S(=O)(=O)Cc1c(C(=O)N3CCOCC3)nn(C3CCOCC3)c1-2` [Example 289, N-[3-(Morpholin-4-ylcarbonyl)-5,5-dioxido-1-(tetrahydro-2H-pyran-4-yl)-1,4-dihydropyrazolo[3′,4′:4,5]thiopyrano[3,2-d][1,3]thiazol-7-yl]acetamide]: the IC50 turned out to be 284 nM.

The record behind these values is patent US9073940B2, “Tricyclic pyrazol amine derivatives” (MERCK SERONO SA, priority 2009, dated 2015).
